Literature values as cited in patent publication US20220347185A1, “IBOGAINE FORMULATIONS” (CAAMTECH, INC., priority 2019, published 2022).

Experiments:
heroin addicts = conditions: 1962
[1] = Dzoljic et al. 1988
rats = conditions: single dose, Rodriguez et al. 2020
humans = conditions: Mash et al. 2000
mice = conditions: da Silva et al. 2006

For `CC[C@H]1C[C@@H]2C[C@H]3c4[nH]c5ccc(OC)cc5c4CCN(C2)[C@@H]13` [ibogaine], the “cravings and withdrawal symptoms” value (heroin addicts) is given as “marked reductions in their cravings and withdrawal symptoms”, the “withdrawal from narcotics addiction” value [1] is given as “relieve withdrawal from narcotics addiction” and the antidepressant effects (rats) is given as “caused antidepressant effects”. For the same compound, the treating substance addiction (review papers and meta-analyses) was “effective for treating substance addiction”, the treating opioid addiction (several current studies) was “effective for treating opioid addiction” and the depressive symptoms (humans) was “significantly decreased depressive symptoms”. For the same compound, the “effectiveness of multiple administrations versus a single dose” value (rats and mice; additional study results) was “more effective in multiple administrations over time than from a single dose” and the self-administration of opiates (rats and mice; rats and mice) was “reduce or interrupt the self-administration of opiates”.

In the case of `CO[C@H]1C=C2[C@H]3CN(Cc4cc5c(cc43)OCO5)[C@H]2C[C@@H]1O` [montanine], the anticonvulsive effect (mice) is given as “anticonvulsive”, the antidepressive effect (mice) is given as “antidepressive effects” and the anxiolytic effect (mice) is given as “anxiolytic”.

In the case of `CC[C@H]1C[C@@H]2C[C@H]3c4[nH]c5ccc(O)cc5c4CCN(C2)[C@@H]13` [noribogaine], the antidepressant effects (rats) is given as “caused antidepressant effects”.
